# Where two headings read alike, the source gives them in different places.
# Experiments:
# porcine liver CES = assay: In vitro CES inhibition (4-NPA substrate); format: biochemical; conditions: % inhibition at 20 μM; n.a. = not active
# Method: The esterase profile of the synthesized conjugates was determined. This included an assessment of their inhibition of cholinergic targets AChE and BChE along with a structurally related enzyme CES (EC 3.1.1.1), which hydrolyzes numerous ester‐containing drugs and is considered as an off‐target for anti‐AD agents.^[ [9], [40] ^] Human erythrocyte AChE, equine serum BChE, and porcine liver CES were used.^[ [40], [41], [42] ^]
# Initially, we used a single concentration of 20 µM for all compounds.
# ^a All experiments were carried out in accordance with the standard protocols approved by IPAС RAS. Human erythrocyte AChE, equine serum BChE were purchased from Milamed (Perm, Russia). Porcine liver CES, substrates, and reference compounds were from Sigma-Aldrich (St. Louis, MO, USA). The activity of enzymes was measured spectrophotometrically, as described in detail in ^[1] using ATCh iodide, BTCh iodide, and 4-NPA as substrates for AChE, BChE, and CES, respectively. Experimental conditions: K,Na-phosphate buffer (100 mM), 25 °С, pH 7.5 for AChE and BChE and pH 8.0 for CES assay. Measurements were carried out on a FLUOStar Optima microplate reader (BMG Labtech, Ortenberg, Germany). Test compounds were dissolved in DMSO; final concentration of solvent in the incubation mixture was 2% (v/v).
# β‐amyloid (1–42) (Aβ42) = β‐amyloid (1–42) (Aβ42) (Homo sapiens, UniProt P05067); assay: Inhibition of Aβ42 self-aggregation (thioflavin T fluorescence); format: biochemical; conditions: for inhibition at 100 µM: read-out: Inhibition of Aβ42 self‐aggregation, %
# Chain of β‐amyloid (1–42) (Aβ42) (P05067 672-713 limits assumed): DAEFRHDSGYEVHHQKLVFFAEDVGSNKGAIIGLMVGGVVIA
# Method: Inhibition of Aβ42 self‐aggregation by test compounds was studied using the ThT fluorescence method^[ [67], [68] ^] with minor modifications as described in detail in Makhaeva et al.^[ [16] ^] Lyophilized hexamfluoroisopropanol‐pretreated Aβ42 (GenicBio Limited, 1 mg) was dissolved in DMSO to obtain a stable 500 μM solution. […] Myricetin and propidium iodide in the same concentration were used as references. […] Each assay was run in triplicate.
# ^c The inhibitory effect of the test compounds toward Aβ42 self-aggregation was determined using the thioflavin T (ThT) fluorescence method ^[5-7] with minor modifications as described in detail in ^[8]. Lyophilized HFIP-pretreated Aβ42 from BACHEM (Bubendorf, Switzerland) was used. […] Myricetin and propidium iodide were used as reference compounds (positive controls). Analyses were performed with a FLUOStar Optima microplate reader (LabTech, Ortenberg, Germany). The inhibition (%) of Aβ42 self-aggregation by the test compounds was calculated by the following equation: […]
# where IFi and IFo are the fluorescence intensities obtained for Aβ42 in the presence and in the absence of inhibitor, respectively, after subtracting the fluorescence of respective blanks.
# human erythrocyte AChE = molecular target: T1, human erythrocyte AChE (Homo sapiens, UniProt P22303); assay: biochemical; format: biochemical; conditions: for IC50: human erythrocyte AChE, mean ± SEM, n = 3
# T1 construct: purchased Sigma-Aldrich; Milamed, Perm, Russia (supplement); host or cells: human erythrocytes
# T1 sequence (P22303 32-617 isoform P22303-2 limits assumed): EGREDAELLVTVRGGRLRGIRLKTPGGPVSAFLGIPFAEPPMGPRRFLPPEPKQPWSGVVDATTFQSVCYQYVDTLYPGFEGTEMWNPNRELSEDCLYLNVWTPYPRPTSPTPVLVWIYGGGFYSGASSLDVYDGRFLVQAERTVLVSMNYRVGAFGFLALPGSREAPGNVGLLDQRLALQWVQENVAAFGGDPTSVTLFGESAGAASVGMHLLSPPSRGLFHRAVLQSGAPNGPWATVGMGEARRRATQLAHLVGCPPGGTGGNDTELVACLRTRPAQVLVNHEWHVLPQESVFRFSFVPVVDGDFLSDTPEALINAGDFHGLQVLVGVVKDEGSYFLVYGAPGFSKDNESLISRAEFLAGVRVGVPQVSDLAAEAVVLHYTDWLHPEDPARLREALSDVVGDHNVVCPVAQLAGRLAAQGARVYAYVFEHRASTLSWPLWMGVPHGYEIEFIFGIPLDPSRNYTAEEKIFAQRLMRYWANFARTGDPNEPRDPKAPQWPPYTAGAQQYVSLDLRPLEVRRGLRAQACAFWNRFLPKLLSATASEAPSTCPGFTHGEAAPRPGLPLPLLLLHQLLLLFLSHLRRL
# [1] = test system: HepG2 cells (human hepatocellular carcinoma); assay: Cytotoxicity, MTT assay, HepG2; format: cell-based; conditions: HepG2, MTT, 24 h, mean ± SEM, n = 3, read-out: Hep G2 IC50
# [2] = test system: SH‐SY5Y (human neuroblastoma) cells; assay: Cytotoxicity, MTT assay, SH-SY5Y; format: cell-based; conditions: MTT, 24 h, mean ± SEM, n = 3, read-out: SH‐SY5Y IC50
# [3] = molecular target: T2, PAS of Electrophorus electricus AChE (EeAChE) (Electrophorus electricus, UniProt O42275); format: binding; conditions: 20 µM compound concentration
# T2 construct: purchased Sigma-Aldrich type VI-S; host or cells: electric eel tissue
# T2 sequence (O42275 24-633): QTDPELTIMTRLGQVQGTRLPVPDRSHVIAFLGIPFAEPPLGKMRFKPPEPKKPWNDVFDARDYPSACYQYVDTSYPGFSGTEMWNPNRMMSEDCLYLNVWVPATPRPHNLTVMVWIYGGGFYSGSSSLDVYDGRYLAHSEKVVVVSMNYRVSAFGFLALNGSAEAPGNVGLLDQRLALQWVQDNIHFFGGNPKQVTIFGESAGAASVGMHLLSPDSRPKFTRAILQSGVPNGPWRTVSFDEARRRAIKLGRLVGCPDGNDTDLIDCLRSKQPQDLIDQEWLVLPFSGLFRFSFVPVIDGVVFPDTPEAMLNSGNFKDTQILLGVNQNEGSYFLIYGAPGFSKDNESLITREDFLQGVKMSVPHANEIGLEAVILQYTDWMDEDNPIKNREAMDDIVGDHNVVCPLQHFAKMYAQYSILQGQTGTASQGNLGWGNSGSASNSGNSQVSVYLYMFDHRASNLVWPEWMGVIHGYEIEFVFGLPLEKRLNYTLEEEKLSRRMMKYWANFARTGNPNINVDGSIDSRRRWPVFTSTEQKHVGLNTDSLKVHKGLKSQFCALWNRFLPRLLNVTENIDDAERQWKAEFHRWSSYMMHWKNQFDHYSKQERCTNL
# Method: The ability of the test compounds to competitively displace propidium was evaluated by the fluorescence method,^[ [65] ^] as described in detail in Makhaeva et al.^[ [66] ^] […] After 15 min of incubation of the test compounds at a concentration of 20 μM with a 7 μM solution of EeAChE in 1 mM Tris‐HCl buffer, pH 8.0, 25°C, propidium iodide (final concentration 8 μM) was added. Then, the solutions were incubated for 15 min and the fluorescence spectrum was recorded (530 nm (excitation) and 600 nm (emission)). […] Measurements were performed in triplicate on a FLUOStar Optima microplate reader (BMG LabTech).
# The 7 μM EeAChE was incubated with the test compound at a concentration of 20 μM in 1 mM Tris-HCl buffer pH 8.0, 25 °C, for 15 min. After that, propidium iodide was added at final concentration of 8 μM. The samples were incubated for 15 min and the fluorescence spectrum (530 nm (excitation) and 600 nm (emission)) was taken. […] The measurements were carried out in triplicate on a FLUOStar Optima microplate reader. The degree of propidium displacement (% displacement) from the PAS of EeAChE was calculated by formula (1):
# % Displacement = 100 – (IFAChE+ Propidium + inhibitor / IFAChE + Propidium) × 100 (1),
# where IFAChE + Propidium is the fluorescence intensity of the propidium associated with AChE in the absence of the test compound (taken as 100%), and IFAChE + Propidium + inhibitor is the fluorescence intensity of the propidium associated with AChE in the presence of the test compound.
# [4] = test system: HEK293T (human embryonic kidney) cells; assay: Cytotoxicity, MTT assay, HEK293T; format: cell-based; conditions: HEK-293T, MTT, 24 h, mean ± SEM, n = 3, read-out: HEK293T IC50
# equine serum BChE = molecular target: T3, equine serum BChE (Equus caballus, UniProt P81908); assay: biochemical
# T3 construct: purchased Sigma-Aldrich; Milamed, Perm, Russia (supplement); host or cells: horse serum
# T3 sequence (P81908 whole entry): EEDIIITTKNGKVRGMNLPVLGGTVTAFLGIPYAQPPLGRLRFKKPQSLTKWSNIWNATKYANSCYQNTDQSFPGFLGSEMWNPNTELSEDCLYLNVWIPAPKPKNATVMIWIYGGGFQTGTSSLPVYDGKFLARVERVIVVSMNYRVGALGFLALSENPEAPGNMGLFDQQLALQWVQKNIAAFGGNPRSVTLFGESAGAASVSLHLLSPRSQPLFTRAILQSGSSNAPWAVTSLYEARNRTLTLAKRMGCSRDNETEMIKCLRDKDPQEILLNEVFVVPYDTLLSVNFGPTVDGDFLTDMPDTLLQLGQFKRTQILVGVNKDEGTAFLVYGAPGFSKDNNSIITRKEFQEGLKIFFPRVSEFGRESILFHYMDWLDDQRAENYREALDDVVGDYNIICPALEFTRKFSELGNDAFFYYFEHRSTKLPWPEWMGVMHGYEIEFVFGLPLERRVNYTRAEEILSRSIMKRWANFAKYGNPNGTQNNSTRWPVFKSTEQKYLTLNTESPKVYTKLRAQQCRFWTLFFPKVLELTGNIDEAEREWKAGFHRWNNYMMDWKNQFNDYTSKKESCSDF
# [5] = ABTS radical cation scavenging activity assay; conditions: for IC50: concentration reducing ABTS radical by 50%, 1 h; for ABTS^•+‐scavenging activity, TEAC: relative to Trolox, 1 h incubation, n.a. = inactive
# eqBChE = molecular target: T4, eqBChE (Equus caballus, UniProt P81908); assay: Kinetic study of BChE inhibition, steady-state inhibition constants; format: biochemical; conditions: for αK i (noncompetitive inhibition constant), eqBChE / Ki: means ± SEM; for Ki: read-out: K i (competitive inhibition constant), eqBChE
# T4 construct: purchased Sigma-Aldrich; Milamed, Perm, Russia (supplement); host or cells: horse serum
# T4 sequence (P81908 whole entry): as above
# Method: (§1) We assessed the mechanisms of AChE and BChE inhibition by performing a thorough analysis of enzyme kinetics. After a 5 min incubation at 25°C (for temperature equilibration) with three increasing concentrations of inhibitor and six decreasing substrate concentrations, the residual enzyme activity was measured as described above for enzymatic assays.
# AChE = molecular target: T5, AChE (Homo sapiens, UniProt P22303); assay: Kinetic study of AChE inhibition, steady-state inhibition constants; format: biochemical; conditions: for αK i (noncompetitive inhibition constant), AChE / Ki: means ± SEM; for Ki: read-out: K i (competitive inhibition constant), AChE
# T5 construct: purchased Sigma-Aldrich; Milamed, Perm, Russia (supplement); host or cells: human erythrocytes
# T5 sequence (P22303 32-617 isoform P22303-2 limits assumed): as the sequence (P22303 32-617 isoform P22303-2 limits assumed) above
# Method: as §1
# [6] = equine serum BChE, mean ± SEM, n = 3
SMILES,"CES inhibition, % (porcine liver CES)","inhibition at 100 µM (β‐amyloid (1–42) (Aβ42); Aβ42 50 µM, compound 100 µM) [%]",IC50 (human erythrocyte AChE) [µM],"Propidium displacement, % [3]",Selectivity index IC50AChE/IC50BChE (equine serum BChE),IC50 (equine serum BChE; [6]) [µM],IC50 [5] [µM],"ABTS^•+‐scavenging activity, TEAC [5]",other results
"O=C(NCCCCNc1c2c(nc3c1CCC3)CCCC2)c1ccccc1O [7a, N‐{4‐[(2,3,5,6,7,8‐Hexahydro‐1H‐cyclopenta[b]quinolin‐9‐yl)amino]butyl}−2‐hydroxybenzamide]",5.0 ± 0.1%,41.3 ± 3.3,1.52 ± 0.14,10.8 ± 0.8%,6.0,0.254 ± 0.023,17.6 ± 0.8,0.97 ± 0.04,IC50 [1]: 74.7 ± 3.4 µM; IC50 [2]: 49.6 ± 3.7 µM; IC50 [4]: 38.4 ± 3.6 µM
"O=C(NCCCCCCNc1c2c(nc3c1CCC3)CCCC2)c1ccccc1O [7b, N‐{6‐[(2,3,5,6,7,8‐Hexahydro‐1H‐cyclopenta[b]quinolin‐9‐yl)amino]hexyl}−2‐hydroxybenzamide]",12.3 ± 1.2%,53.4 ± 4.2,4.24 ± 0.08,11.6 ± 0.9%,193,0.022 ± 0.001,17.6 ± 0.7,0.98 ± 0.04,"αK i (noncompetitive inhibition constant), eqBChE (eqBChE): 19.2 ± 0.9 nM; Ki (eqBChE): 0.0142 ± 0.0011 µM; αK i (noncompetitive inhibition constant), AChE (AChE): 6.25 ± 0.44 µM; Ki (AChE): 2.6 ± 0.19 µM"
"O=C(NCCCCCCCCNc1c2c(nc3c1CCC3)CCCC2)c1ccccc1O [7c, N‐{8‐[(2,3,5,6,7,8‐hexahydro‐1H‐cyclopenta[b]quinolin‐9‐yl)amino]octyl}−2‐hydroxybenzamide]",32.9 ± 0.9%,74.1 ± 5.1,1.53 ± 0.03,11.8 ± 0.8%,138,0.0111 ± 0.0001,19.4 ± 0.6,0.94 ± 0.04,"IC50 [1]: 6.92 ± 1.22 µM; IC50 [2]: 7.99 ± 0.3 µM; IC50 [4]: 3.62 ± 0.02 µM; BChE inhibition, times more effective than amiridine (equine serum BChE): 25 times; IC50 (equine serum BChE): 0.011 ± 0.0001 µM"
"Oc1ccccc1C=NCCCCNc1c2c(nc3c1CCC3)CCCC2 [9a, 2‐[({4‐[(2,3,5,6,7,8‐Hexahydro‐1H‐cyclopenta[b]quinolin‐9‐yl)amino]butyl}imino)methyl]phenol]",10.5 ± 0.9%,20.1 ± 1.4,3.31 ± 0.02,12.5 ± 1.1%,5.2,0.642 ± 0.007,26.6 ± 1.1,0.65 ± 0.03,"IC50 [1]: > 100 µM; IC50 [2]: 73.2 ± 0.9 µM; IC50 [4]: 38.1 ± 2.1 µM; ABTS^•+‐scavenging activity, TEAC ([5]; listed as 9a a): 0.65"
"Oc1ccccc1C=NCCCCCCNc1c2c(nc3c1CCC3)CCCC2 [9b, 2‐[({6‐[(2,3,5,6,7,8‐Hexahydro‐1H‐cyclopenta[b]quinolin‐9‐yl)amino]hexyl}imino)methyl]phenol]",,,,,,,,,"αK i (noncompetitive inhibition constant), eqBChE (eqBChE): 89.0 ± 7.1 nM; Ki (eqBChE): 0.0501 ± 0.0048 µM; αK i (noncompetitive inhibition constant), AChE (AChE): 4.98 ± 0.33 µM; Ki (AChE): 1.76 ± 0.12 µM"
"Oc1ccccc1CNCCCCCCNc1c2c(nc3c1CCC3)CCCC2 [10b, 2‐[({6‐[(2,3,5,6,7,8‐Hexahydro‐1H‐cyclopenta[b]quinolin‐9‐yl)amino]hexyl}amino)methyl]phenol]",,79.2 ± 5.5,1.19 ± 0.05,,,0.0294 ± 0.0006,,,"Type of BChE inhibition (eqBChE; Lineweaver–Burk analysis): mixed type of inhibition; αK i (noncompetitive inhibition constant), eqBChE (eqBChE): 45.4 ± 4.1 nM; Ki (eqBChE): 0.021 ± 0.0006 µM; Type of AChE inhibition (AChE; Lineweaver–Burk analysis): mixed type of inhibition; αK i (noncompetitive inhibition constant), AChE (AChE): 1.50 ± 0.03 µM; Ki (AChE): 0.656 ± 0.011 µM"
"O=[N+]([O-])c1ccc(OP(=O)(O)Oc2ccc([N+](=O)[O-])cc2)cc1 [BNPP, Bis‐4‐nitrophenyl phosphate, reference compound]",,,,n.а.,,,,,"Inhibition of Aβ42 self‐aggregation, % (β‐amyloid (1–42) (Aβ42); Aβ42 50 µM, compound 100 µM): n.а.; AChE inhibition, % (human erythrocyte AChE; 20 µM): n.а.; BChE inhibition, % (equine serum BChE; 20 µM): n.а."
"COc1cc2c(cc1OC)C(=O)C(CC1CCN(Cc3ccccc3)CC1)C2 (stereo not drawn) [Donepezil, reference compound]",n.а.,,,,,,,,inhibition at 100 µM (β‐amyloid (1–42) (Aβ42)): 90.7 ± 7.1%
"O=c1c(O)c(-c2cc(O)c(O)c(O)c2)oc2cc(O)cc(O)c12 [Myricetin, reference compound]",,79.4 ± 6.3,,,,,,,
"CC[N+](C)(CC)CCC[n+]1c(-c2ccccc2)c2cc(N)ccc2c2ccc(N)cc21.[I-].[I-] [Propidium iodide, reference compound]",,,,,,,,,"Inhibition of Aβ42 self‐aggregation, % (β‐amyloid (1–42) (Aβ42); Aβ42 50 µM, compound 100 µM): 90.7 ± 7.1%"
"O=C(O)c1ccccc1O [Salicylic acid, reference compound]",8.9 ± 0.6%,,,,,,,did not show activity,
"Cc1c(C)c2c(c(C)c1O)CCC(C)(C(=O)O)O2 (stereo not drawn) [Trolox, 6-hydroxy-2,5,7,8-tetramethychroman-2-carboxylic acid, reference compound]",,,,,,,19.7 ± 1.4,1.0,
"CCCCCCNc1c2c(nc3c1CCC3)CCCC2 [compound 11, N‐hexyl‐2,3,5,6,7,8‐hexahydro‐1H‐cyclopenta[b]quinolin‐9‐amine]",5.6 ± 0.6%,,4.3 ± 0.32,,16.4,0.262 ± 0.008,,,
"CCCCCCN=Cc1ccccc1O [compound 12, 2‐[(hexylimino)methyl]phenol]",1.9 ± 0.1%,,,,,,93.3 ± 4.1,0.15 ± 0.008,"AChE inhibition, % (human erythrocyte AChE; % inhibition at 20 μM, n.a. = not active): n.а.; inhibition at 20 µM (equine serum BChE): 10.6 ± 0.1%"
"CCCCCCNCc1ccccc1O [compound 13, 2‐[(hexylamino)methyl]phenol]",14.8 ± 0.5%,,,,,,10.7 ± 0.4,1.52 ± 0.07,inhibition at 20 µM (human erythrocyte AChE): 14 ± 0.6%; inhibition at 20 µM (equine serum BChE): 26.9 ± 0.5%

# — publication PMC11650361 (Archiv Der Pharmazie, 2024)
